The values below come from patent US9302999B2, “Substituted triazoles as herbicides” (E. I. DU PONT DE NEMOURS AND COMPANY, priority 2012, dated 2016).

SMILES strings stand for the structures.

Common to all, as to format: in vivo
In assay [1] the test system is bluegrass (annual bluegrass, Poa annua). Description: Test D pre-/postemergence: bluegrass. The gist of the method: (§1)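 Visual control ratings (0–100) after 14–21 days, controlled environment. Preemergence on silt loam; postemergence on 2–18 cm plants.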
Assay [2] relates to oilseed rape (Brassica napus). As to the kind of experiment: Test D pre-/postemergence: oilseed rape. The gist of the method: as §1
Assay [3] relates to radish, wild (wild radish, Raphanus raphanistrum). Description: Test D pre-/postemergence: radish, wild. The method, boiled down: as §1
Another assay concerns Waterhemp. As to the kind of experiment: Test C preemergence: waterhemp. Particulars: 62 g ai/ha, scale of 0 to 100, 0 is no effect, 100 is complete control. The text has this:
Seeds of plant species selected from blackgrass (Alopecurus myosuroides), bromegrass, downy (downy bromegrass, Bromus tectorum), foxtail, green (green foxtail, Setaria viridis), ryegrass, Italian (Italian ryegrass, Lolium multiflorum), winter wheat (Triticum aestivum), wild oat (Avena fatua), galium (catchweed bedstraw, Galium aparine), bermudagrass (Cynodon dactylon), surinam grass (Brachiaria decumbens), cocklebur (common cocklebur, Xanthium strumarium), corn (Zea mays), large crabgrass (Digitaria sanguinalis), woolly cupgrass (Eriochloa villosa), foxtail, giant (giant foxtail, Setaria faberii), goosegrass (Eleusine indica), johnsongrass (Sorghum halepense), kochia (Kochia scoparia), lambsquarters (Chenopodium album), morningglory (Ipomoea coccinea), nightshade (eastern black nightshade, Solanum ptycanthum), nutsedge, yellow (yellow nutsedge, Cyperus esculentus), pigweed (Amaranthus retroflexus), ragweed (common ragweed, Ambrosia elation), soybean (Glycine max), common (oilseed) sunflower (Helianthus annuus), Russian thistle (Salsola kali) and velvetleaf (Abutilon theophrasti) were planted into a blend of loam soil and sand and treated preemergence with test chemicals formulated in a non-phytotoxic solvent mixture which included a surfactant.
Treated plants and controls were maintained in a greenhouse for 13 to 15 days, after which time all species were compared to controls and visually evaluated. Plant response ratings, summarized in Table C, are based on a scale of 0 to 100 where 0 is no effect and 100 is complete control. A dash (-) response means no test result.

Where [4] appears, read: Postemergence, 31 g ai/ha, scale 0 to 100 (0 no effect, 100 complete control).
Where [5] appears, read: Postemergence, 62 g ai/ha, scale 0 to 100 (0 no effect, 100 complete control).
The mark [6] stands for this setting: Postemergence, 125 g ai/ha, scale 0 to 100, 0 no effect, 100 complete control.
Setting [7] is: Postemergence, 16 g ai/ha, scale 0 to 100.
Setting [8] is: Preemergence, 16 g ai/ha, scale 0 to 100, 0 no effect, 100 complete control.
[9] abbreviates: Preemergence, 31 g ai/ha, scale 0 to 100, 0 no effect, 100 complete control.
The mark [10] stands for this setting: Preemergence, 62 g ai/ha, scale 0 to 100.
Where [11] appears, read: Preemergence, 125 g ai/ha, scale 0 to 100.

For `Cc1nn(-c2ccc(F)c(C(F)(F)F)c2)nc1Cc1ccnc(C(F)(F)F)c1` [Compound 156], the “Plant response rating: Bluegrass” value was 65 in assay [1] (setting [4]), 70 in assay [1] (setting [5]) and 80 in assay [1] (setting [6]). In addition, the “Plant response rating, Bluegrass” value was 15 in assay [1] (setting [7]); 5 in assay [1] (setting [8]); 5 in assay [1] (setting [9]); 40 in assay [1] (setting [10]); 100 in assay [1] (setting [11]). Further, the “Plant response rating: Oilseed Rape” value in assay [2] (setting [4]), in assay [2] (setting [5]) and in assay [2] (setting [6]) was 100 throughout. Moreover, the “Plant response rating, Oilseed Rape” value is reported as 100 in assay [2] (setting [7]); 0 in assay [2] (setting [8]); 0 in assay [2] (setting [9]); 85 in assay [2] (setting [10]); 100 in assay [2] (setting [11]). The “Plant response rating: Radish, Wild” value is given as 85 in assay [3] (setting [4]), 100 in assay [3] (setting [5]) and 100 in assay [3] (setting [6]). In addition, the “Plant response rating, Radish, Wild” value in assay [3] (setting [7]) is 65; in assay [3] (setting [8]), 5; in assay [3] (setting [9]) it was 10; in assay [3] (setting [10]), 100; in assay [3] (setting [11]) it was 100. Also, in the assay on Waterhemp, the “Plant response rating, Waterhemp” value is on record as 100.

Regarding `CCc1nn(-c2ccc(C(F)(F)F)cc2)nc1Cc1ccnc(C(F)(F)F)c1` [Compound 155], the “Plant response rating: Bluegrass” value was determined as 35 in assay [1] (setting [4]), 75 in assay [1] (setting [5]) and 90 in assay [1] (setting [6]). The “Plant response rating, Bluegrass” value in assay [1] (setting [7]) is 20; in assay [1] (setting [8]), 15; in assay [1] (setting [9]), 15; in assay [1] (setting [10]), 60; in assay [1] (setting [11]), 85. Further, the “Plant response rating: Oilseed Rape” value in assay [2] (setting [4]), in assay [2] (setting [5]) and in assay [2] (setting [6]) was 100 each time. Further, the “Plant response rating, Oilseed Rape” value in assay [2] (setting [7]) is recorded as 85; in assay [2] (setting [8]), 0; in assay [2] (setting [9]) it was 5; in assay [2] (setting [10]), 100; in assay [2] (setting [11]), 100. For the same compound, the “Plant response rating: Radish, Wild” value stood at 95 in assay [3] (setting [4]), 95 in assay [3] (setting [5]) and 100 in assay [3] (setting [6]). Moreover, the “Plant response rating, Radish, Wild” value in assay [3] (setting [7]) is 85; in assay [3] (setting [8]), 100; in assay [3] (setting [9]), 95; in assay [3] (setting [10]), 100; in assay [3] (setting [11]) it was 100. For the same compound, in the assay with Waterhemp, the “Plant response rating, Waterhemp” value came to 100.

For the compound `CCOCc1nn(-c2ccc(F)cc2)nc1Oc1ccnc(C(F)(F)F)c1` [Compound 163], in the assay on Waterhemp, the “Plant response rating, Waterhemp” value worked out at 100.

Turning to `CCc1nn(-c2ccc(F)cc2)nc1Cc1ccnc(C(F)(F)F)c1` [Compound 154], the “Plant response rating, Waterhemp” value with Waterhemp was found to be 100.

As to `CCOc1nn(-c2ccc(Cl)cc2)nc1Cc1ccnc(C(F)(F)F)c1` [Compound 188], the “Plant response rating, Waterhemp” value in the assay with Waterhemp came to 100.

Regarding `FCc1nn(-c2ccc(F)cc2)nc1Oc1ccnc(C(F)(F)F)c1` [Compound 160], in the assay on Waterhemp, the “Plant response rating, Waterhemp” value worked out at 100.
